Test results as given in patent US8633218B2, “8-azabicyclo[3.2.1]oct-2-ene derivatives and their use as monoamine neurotransmitter re-uptake inhibitors” (Aniona APS, priority 2008, dated 2014).
Structures can show the parent of a compound that is named as a salt.

Key:
Type in all cases: biochemical
[1] = tested on: noradrenaline (NA) reuptake in synaptosomes; test: Inhibition of 3H-NA reuptake in synaptosomes; conditions: read-out: NA-uptake IC50
Procedure: (§1) Compounds were tested for their ability to inhibit the reuptake of the monoamine neurotransmitters dopamine (DA) noradrenaline (NA) and serotonine (5-HT) in synaptosomes as described in WO 97/16451 (NeuroSearch A/S).
(§2) The test values are given as IC50 (the concentration (μM) of the test substance which inhibits the specific binding of ^3H-DA, ^3H-NA, or ^3H-5-HT by 50%).

[2] = tested on: dopamine (DA) reuptake in synaptosomes; test: Inhibition of 3H-DA reuptake in synaptosomes; conditions: read-out: DA-uptake IC50
Procedure: as §1, §2

[3] = tested on: serotonine (5-HT) reuptake in synaptosomes; test: Inhibition of 3H-5-HT reuptake in synaptosomes; conditions: read-out: 5-HT-uptake IC50
Procedure: as §1, §2

| Structure (SMILES) | IC50 [1] [nM] | IC50 [2] [nM] | IC50 [3] [nM] |
| --- | --- | --- | --- |
| Oc1ccc2sc(C3=CC4CCC(C3)N4)cc2c1 (stereo not drawn) [Compound 3.1, 2-(8-Aza-bicyclo[3.2.1]oct-2-en-3-yl)-benzo[b]thiophen-5-ol hydrochloric acid salt] | 4.3 | 94 | 0.37 |
| COc1ccc2sc(C3=CC4CCC(C3)N4)cc2c1 (stereo not drawn) [Compound 2.1, 3-(5-Methoxy-benzo[b]thiophen-2-yl)-8-aza-bicyclo[3.2.1]oct-2-ene hydrochloric acid salt] | 57 | 740 | 2.5 |
